Test [1] deals with mast cell activation induced by FcγR cross-linking (CHMC cells). Description: LD Tryptase CHMC: tryptase release assay. It counts as cell-based, Human. The conditions noted are these: for inhibition in tryptase assay, in words: prodrug. As to the method:
Compounds are assayed for inhibition of mast cell activation induced by FcγR cross-linking by measuring the activity of tryptase released upon degranulation as follows:
Human mast cells are cultured and differentiated from CD38-negative progenitor cell as described in U.S. Patent Publication No. 2005/0234049, which is hereby incorporated herein by reference in its entirety. For example, 65 μL of various concentrations of the test compound are prepared in MT (137 mM NaCl, 2.7 mM KCl, 1.8 mM CaCl2, 1.0 mM MgCl2, 5.6 mM Glucose, 20 mM Hepes (pH 7.4), 0.1% Bovine Serum Albumin, (Sigma, #A4503)) containing 2% MeOH and 1% DMSO, or control buffer are added to duplicate 96-well V-bottom plates. Pelleted and re-suspended (in warm MT) CHMC cells (65 μL) are added to each 96-well plate, mixed and incubated for 1 hour at 37° C. […] MT (25 μL) is added to control wells. After a 60-minute incubation at 37° C., cells and cell debris were pelleted by centrifugation at 1000 rpm for 10 min and tryptase and leukotriene C4 levels are measured.
To measure tryptase levels, 25 μL of supernatant from each well is transferred to a fresh 96-well black bottom plate, to which 100 μL of fresh tryptase substrate solution [(Z-Ala-Lys-Arg-AMC2TFA; Enzyme Systems Products, #AMC-246)]1:2000 in tryptase assay buffer [0.1M Hepes (pH 7.5), 10% w/v Glycerol, 10 μM Heparin (Sigma H-4898) 0.01% NaN3] is added. After 30 minutes incubation at room temperature, the optical density of the plates is measured at 355 nm/460 nm on a spectrophotometric plate reader.
Compounds of the disclosure were assayed for their ability to inhibit mast cell activation induced by FcγR cross-linking by measuring the activity of tryptase released upon degranulation.

The subject of test [2] is allergen induced basophil degranulation. Description: CD63 Assay (BASOTEST, FACS, whole blood, anti-IgE). It counts as cell-based. To be noted: whole blood, anti-IgE; Table 2, unit inferred. As to the method:
Compounds are tested for the ability to inhibit allergen induced basophil degranulation. The BASOTEST® kit (Orpegen Pharma GmbH, #10-0500) is used in this assay. In a 5 mL FACS tube 105 μL of Heparinized whole blood, 25 μL of test compound solution (in DMSO) are incubated at room temperature for 30-60 minutes. To induce degranulation, 20 μL stimulation buffer (Reagent B) is added, and the tube is incubated for 10 min in a 37° C. water bath. Then, 100 μL of anti-IgE (2 μg/mL) is added, or 100 µL of washing solution (reagent A) is added (i.e., as a negative control). The tube is incubated for 20 min in a 37° C. water bath. Degranulation is then stopped by incubation on ice for 5 min. 20 μL of staining reagent (reagent F) is added, and the tube is incubated on ice in the dark for 20 min. 2 mL of room temperature lysing solution is added, and the tube is incubated at room temperature for 10 min. The tubes are spun down at 4° C. for 5 min at 1600 rpm, and the supernatant is discarded. 3 mL washing solution (reagent A) is added, and the tubes spun down at 4° C. for 5 min at 1600 rpm, and the supernatant is discarded. 200 μL washing solution is added to the remaining cell pellet, and the samples are incubated on ice in the dark until analysis (within 2 h). Analysis is performed using flow cytometry at 488 nm using the conditions specified in the BASOTEST® kit instructions to determine percentage of activated basophilic granulocytes.

Setting [3] is: human mast cells, anti-IgG stimulation, read-out: IC50 (LD Tryptase CHMC).

Where two headings read alike, the source gives them in different places.

For the molecule `CC1(C)Oc2ccc(Nc3nc(Nc4ccc(N5CCOCC5)nc4)ncc3F)nc2N(COP(=O)([O-])[O-])C1=O.[Na+].[Na+]` [Compound 2, N4-[2,2-Dimethyl-4-[(dihydrogenphosphonoxy)methyl]-3-oxo-5-pyrido[1,4]oxazin-6-yl]-5-fluoro-N2-(6-morpholinopyridin-3-yl)-2,4-pyrimidinediamine disodium salt], the IC50 in test [1] (setting [3]) came out at 21.9 µM. In addition, the “inhibition in tryptase assay, in words” value in test [1] is “only micromolar inhibition”.
Regarding `CC1(C)Oc2ccc(Nc3nc(Nc4ccc(N5CCOCC5)cc4)ncc3F)nc2N(COP(=O)([O-])[O-])C1=O.[Na+].[Na+]` [Compound 4, N4-[2,2-Dimethyl-4-[(dihydrogenphosphonoxy)methyl]-3-oxo-5-pyrido[1,4]oxazin-6-yl]-5-fluoro-N2-(4-morpholinophenyl)-2,4-pyrimidinediamine disodium salt], the IC50 in test [1] (setting [3]) was determined as 2.36 µM. Besides, the “inhibition in tryptase assay, in words” value in test [1] was “only micromolar inhibition”.
As to `COc1cc(Nc2ncc(F)c(Nc3ccc4c(n3)NC(=O)C(C)(C)O4)n2)cc(OC)c1OC` [N4-(2,2-Dimethyl-3-oxo-4H-5-pyrido[1,4]oxazin-6-yl)-5-fluoro-N2-(3,4,5-trimethoxyphenyl)-2,4-pyrimidinediamine, reference compound], the IC50 in test [1] (Homo sapiens, Mast cell, Table 2, unit inferred, read-out: LD Tryptase CHMC) was 0.04 µM; in test [2] it was 0.93 µM.

Values taken from patent US8642593B2, “2,4-pyrimidinediamine compounds and prodrugs and their uses” (Rigel Pharmaceuticals, Inc., priority 2009, dated 2014).
